According to patent publication US20050089554A1, “Apparatus and method for enhancing transdermal drug delivery” (priority 2003, published 2005):

Key:
[1] = Desmopressin flux through skin (microprojection solid film system and gel pack), from urinary excretion of tritium; format: in vivo, HGPs; details: 5 mg tritiated desmopressin solid film, 2% HEC gel pack; 1 h and 24 h; FIG. 20
Description: An experiment was conducted to test the concept of the hydratable system using the peptide desmopressin. A system similar to that presented in Example 2 was provided.
The system included a 2 cm^2 solid film containing 5 mg tritiated desmopressin. The thin film was prepared by casting a 20 mil thick aqueous solution comprised of 10 wt. % HPMC 2910 USP and 20 wt. % glycerol. The film was dried and punched into 2 cm^2 discs. Each disc was imbibed with a 20 wt. % ^3H desmopressin solution and subsequently dried. The solid film was subsequently disposed proximate the top surface of the microprojection member. The gel pack or gel reservoir contained 0.120 mL of 2% HEC (NATROSOL® 250 HHX) in water.
(§1) Following application of the microprojection solid film system in HGPs, the gel pack was placed on top of the microprojection member, as illustrated in FIG. 12. At 1 h and 24 h after application, three (3) systems from each group of HGPs were removed and the residual drug washed form the skin. The amount of the drug penetrated during these times intervals was determined by measuring urinary excretion of tritium (previous studies had shown that in HGPs, 71% of ^3H desmopressin injected intravenously is excreted in urine).

[2] = Urinary excretion of 3H desmopressin injected intravenously (previous studies); format: in vivo; details: hairless, urine, iv, total radioactivity, injected intravenously in HGPs, read-out: fraction excreted in urine
Description: as §1

With `NC(=O)CC[C@@H]1NC(=O)[C@H](Cc2ccccc2)NC(=O)[C@H](Cc2ccc(O)cc2)NC(=O)CCSSC[C@@H](C(=O)N2CCC[C@H]2C(=O)N[C@H](CCCN=C(N)N)C(=O)NCC(N)=O)NC(=O)[C@H](CC(N)=O)NC1=O` [desmopressin] the “flux through the skin, time dependence” value [1] was “time dependant flux” and the dose excreted [2] was 71%.
